The source of these data is patent publication US10683294B2, “5-5 fused rings as C5a inhibitors” (CHEMOCENTRYX, INC., priority 2017, dated 2020).

The target of the assay is C5aR (Homo sapiens (Human), UniProt P21730). Nature of the assay: Chemotaxis assay (inhibition of C5aR mediated migration towards C5a). The conditions noted are these: inhibition in the chemotaxis assay (Example 14 B.3); U937 or neutrophil cells, 0.03 nM C5a. The class given is cell-based. The procedure: U937 cells are a monocytic cell line which express C5aR, and are available from ATCC (VA). These cells were cultured as a suspension in RPMI-1640 medium supplemented with 2 mM L-glutamine, 1.5 g/L sodium bicarbonate, 4.5 g/L glucose, 10 mM HEPES, 1 mM sodium pyruvate, and 10% FBS. Cells were grown under 5% CO2/95% air, 100% humidity at 37° C. and subcultured twice weekly at 1:6 (cells were cultured at a density range of 1×10^5 to 2×10^6 cells/mL) and harvested at 1×10^6 cells/mL. Prior to assay, cells are treated overnight with 0.5 mM of cyclic AMP (Sigma, Ohio) and washed once prior to use. cAMP treated U937 cells can be used in C5aR ligand binding and functional assays.
C5aR, sequence (P21730 whole entry): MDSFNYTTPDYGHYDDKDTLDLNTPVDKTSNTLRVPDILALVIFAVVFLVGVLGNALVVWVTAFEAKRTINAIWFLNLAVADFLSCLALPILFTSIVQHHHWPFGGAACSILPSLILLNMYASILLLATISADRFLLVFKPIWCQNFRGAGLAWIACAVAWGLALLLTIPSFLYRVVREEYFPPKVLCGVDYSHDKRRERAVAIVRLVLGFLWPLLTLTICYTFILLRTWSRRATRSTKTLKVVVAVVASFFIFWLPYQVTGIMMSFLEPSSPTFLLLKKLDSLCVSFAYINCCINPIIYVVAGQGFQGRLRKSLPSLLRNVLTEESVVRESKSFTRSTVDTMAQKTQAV
Optionally, human or murine neutrophils can be used to assay for compound activity. Neutrophils may be isolated from fresh human blood using density separation and centrifigation. Briefly, whole blood is incubated with equal parts 3% dextran and allowed to separate for 45 minutes. After separation, the top layer is layered on top of 15 mls of Ficoll (15 mls of Ficoll for every 30 mls of blood suspension) and centrifuged for 30 minutes at 400×g with no brake. The pellet at the bottom of the tube is then isolated and resuspended into PharmLyse RBC Lysis Buffer (BD Biosciences, San Jose, Calif.) after which the sample is again centrifuged for 10 minutes at 400×g with brake. The remaining cell pellet is resuspended as appropriate and consists of isolated neutrophils.
Optionally, compounds may be further assayed for their ability to inhibit chemotaxis in cells. Chemotaxis assays are performed using 5 μm pore polycarbonate, polyvinylpyrrolidone-coated filters in 96-well chemotaxis chambers (Neuroprobe; Gaithersburg, Md.) using chemotaxis buffer (Hank's balanced salt solution (HBSS) and 1% FBS). C5aR ligands (i.e., C5a, R&D Systems; Minneapolis, Minn.) are use to evaluate compound mediated inhibition of C5aR mediated migration. Other chemokines (i.e., SDF-1α; R&D Systems; Minneapolis, Minn.) are used as specificity controls. The lower chamber is loaded with 29 μl of chemokine (i.e., 0.03 nM C5a) and varying amounts of compound; the top chamber contains 100,000 U937 or neutrophil cells in 20 μl. The chambers are incubated 1.5 hours at 37° C., and the number of cells in the lower chamber quantified either by direct cell counts in five high powered fields per well or by the CyQuant assay (Molecular Probes), a fluorescent dye method that measures nucleic acid content and microscopic observation.
One may read the IC50 as the midpoint of a concentration-inhibition curve. `CCc1cccc(CC)c1-n1nc2c(c1-c1ccc(F)c3[nH]ccc13)CN(Cc1ccc(C(F)(F)F)cc1C(F)(F)F)C2(C)C` [Compound 1.039] displayed an IC50 of 5 to 50 nM.
As to `CCc1cccc(CC)c1-n1nc2c(c1-c1ccc(F)c3[nH]ccc13)CN(Cc1cc(C(F)(F)F)cc(C(F)(F)F)c1)C2(C)C` [Compound 1.001], the IC50 lay within 5 to 50 nM.
In the case of `Cc1cccc(C)c1-n1nc2c(c1-c1ccc3[nH]ncc3c1)CN(C(=O)OC(C)(C)C)C2` [Compound 1.058] it was ≥ 500 nM; in that of `CCc1cccc(CC)c1-n1nc2c(c1-c1cccc3[nH]ccc13)CN(C(=O)COc1ccccc1)C2(C)C` [Compound 1.041], 50 to 500 nM.
In the case of `CCc1cccc(CC)c1-n1nc2c(c1-c1ccc3[nH]ccc3c1)CN(C(=O)OC(C)(C)C)C2(C)C` [Compound 1.048] it was 5 to 50 nM; in that of `CCc1cccc(CC)c1-n1nc2c(c1-c1ccc(F)c3[nH]ccc13)CN(CC(C)(C)O)C2(C)C` [Compound 1.009], 50 to 500 nM.
Compound `CCc1cccc(CC)c1-n1nc2c(c1-c1cc(F)cc3[nH]ccc13)CN(Cc1ccc(C(F)(F)F)cc1C(F)(F)F)C2(C)C` [Compound 1.031] came in with an IC50 of 5 to 50 nM.
In the case of `CCc1cccc(CC)c1-n1nc2c(c1-c1ccc3[nH]ccc3c1)CN(Cc1cc(Cl)ccc1Cl)C2(C)C` [Compound 1.046] it was 5 to 50 nM; in that of `CCc1cccc(CC)c1-n1nc2c(c1-c1ccc(C)c3[nH]ccc13)CN(Cc1ccc(C(F)(F)F)cc1C(F)(F)F)C2(C)C` [Compound 1.025], < 5 nM; in that of `CCc1cccc(CC)c1-n1nc2c(c1-c1ccc(F)c3[nH]ccc13)CN(Cc1ncco1)C2(C)C` [Compound 1.008], 50 to 500 nM.
In the case of `CCc1cccc(CC)c1-n1nc2c(c1-c1cccc3[nH]cc(C#N)c13)CN(Cc1ccc(C(F)(F)F)cc1C(F)(F)F)C2(C)C` [Compound 1.036] it was 5 to 50 nM.
`CCc1cccc(CC)c1-n1nc2c(c1-c1ccc(F)c3[nH]ccc13)CN(C(=O)CC(C)C)C2(C)C` [Compound 1.030] displayed an IC50 of 5 to 50 nM.
In the case of `Cc1cccc(C)c1-n1nc2c(c1-c1ccc3[nH]ccc3c1)CN(C(=O)CC(C)(C)C)C2` [Compound 1.061] it was ≥ 500 nM; in that of `CCc1cccc(CC)c1-n1nc2c(c1-c1ccc3[nH]ccc3c1)CN(Cc1ccccc1C(F)(F)F)C2(C)C` [Compound 1.047], 5 to 50 nM; in that of `Cc1cccc(C)c1-n1nc2c(c1-c1ccc3[nH]ccc3c1)CN(C(=O)C1CCCC1)C2` [Compound 1.059], ≥ 500 nM.
The value for `Cc1cccc(C)c1-n1nc2c(c1-c1ccc3[nH]ccc3c1)CN(C(=O)CCC1CCCC1)C2` [Compound 1.056] was ≥ 500 nM; that for `CCc1cccc(CC)c1-n1nc2c(c1-c1ccc(F)c3[nH]ccc13)CN(Cc1ccncc1)C2(C)C` [Compound 1.014] was 50 to 500 nM.
On to `CCc1cccc(CC)c1-n1nc2c(c1-c1ccc(F)c3[nH]cc(Cl)c13)CN(Cc1ccccc1C(F)(F)F)C2(C)C` [Compound 1.026], for which the IC50 was < 5 nM.
Consider `CCc1cccc(CC)c1-n1nc2c(c1-c1ccc(CO)c3[nH]ccc13)CN(Cc1ccc(C(F)(F)F)cc1C(F)(F)F)C2(C)C` [Compound 1.004], for which the IC50 is < 5 nM.
Take `CCOC(C)(C)C(=O)N1Cc2nn(-c3c(C)cccc3C)c(-c3ccc4[nH]ccc4c3)c2C1` [Compound 1.054]: the IC50 is ≥ 500 nM.
Take `CCc1cccc(CC)c1-n1nc2c(c1-c1ccc(F)c3[nH]ccc13)CN(Cc1ccccc1F)C2(C)C` [Compound 1.022]: the IC50 is 5 to 50 nM.
The value for `Cc1cccc(C)c1-n1nc2c(c1-c1ccc3[nH]ccc3c1)CN(C(=O)NC(C)(C)C)C2` [Compound 1.065] was ≥ 500 nM; that for `CCc1cccc(CC)c1-n1nc2c(c1-c1cccc3[nH]cc(F)c13)CN(Cc1ccc(C(F)(F)F)cc1C(F)(F)F)C2(C)C` [Compound 1.010] was 5 to 50 nM; that for `CCc1cccc(CC)c1-n1nc2c(c1-c1ccc(F)c3[nH]ccc13)CN(Cc1ccc(F)cc1F)C2(C)C` [Compound 1.013] was 5 to 50 nM.
